From patent publication US20100317620A1, “N-PHENYLIMIDAZO[1,2-a]PYRIDINE-2-CARBOXAMIDE COMPOUNDS, PREPARATION AND THERAPEUTIC USE THEREOF” (sanofi-aventis, priority 2008, published 2010) come the findings set out here.

This assay addresses T1, murine Nurr1 receptor (Mus musculus, UniProt Q06219).
T1 construct: a cell line (N2A) endogenously expressing the murine Nurr1 receptor; host or cells: Neuro-2A (N2A) mouse neuroblastoma cells stably transfected with 8NBRE-luciferase
The assay is described as follows: In vitro activity on N2A cells (8NBRE-luciferase reporter). The format is cell-based. The conditions noted are these: N2A cell line endogenously expressing murine Nurr1, stably transfected with NBRE-luciferase; 24 hours incubation. On the procedure: Evaluation of the In Vitro Activity on N2A Cells
The activity of the compounds according to the invention was evaluated on a cell line (N2A) endogenously expressing the murine Nurr1 receptor and stably transfected with the NOT binding response element (NBRE) coupled to the luciferase reporter gene. The EC50 values are between 0.01 and 1000 nM. The tests were performed according to the procedure described hereinbelow.
The cell line Neuro-2A is obtained from a standard commercial source (ATCC). The clone Neuro-2A was obtained from a spontaneous tumour originating from a strain of albino mice A by R. J Klebe et al. This line Neuro-2A is then stably transfected with 8NBRE-luciferase. The N2A-8NBRE cells are cultured to the point of confluence in 75 cm^2 culture flasks containing DMEM supplemented with 10% foetal calf serum, 4.5 g/L of glucose and 0.4 mg/ml of geneticin. After culturing for one week, the cells are recovered with 0.25% trypsin for 30 seconds and then resuspended in DMEM without phenol red, containing 4.5 g/L of glucose and 10% Hyclone defatted serum, and placed in white, transparent-based 96-well plates. The cells are deposited at a rate of 60 000 per well in 75 μL for 24 hours before adding the products. The products are applied in 25 μL and incubated for a further 24 hours. On the day of measurement, an equivalent volume (100 μL) of Steadylite is added to each well, and the wells are then left for 30 minutes to obtain complete lysis of the cells and maximum production of the signal. The plates are then measured in a microplate luminescence counter, after having been sealed with an adhesive film. The products are prepared in the form of a 10^−2 M stock solution, and then diluted in 100% of DMSO. Each concentration of product is prediluted in culture medium before incubation with the cells thus containing 0.625% final of DMSO.
(Reporter assays use an easily measured gene product as a stand-in for the process of interest.)

A word on the pEC50: it is −log10 of the EC50, conventionally taken in molar units. Read a low pEC50 as a large EC50.

pEC50: −log10 of the molar value. Counter-ions that a name gives are not always drawn.

T1 sequence (Q06219 whole entry): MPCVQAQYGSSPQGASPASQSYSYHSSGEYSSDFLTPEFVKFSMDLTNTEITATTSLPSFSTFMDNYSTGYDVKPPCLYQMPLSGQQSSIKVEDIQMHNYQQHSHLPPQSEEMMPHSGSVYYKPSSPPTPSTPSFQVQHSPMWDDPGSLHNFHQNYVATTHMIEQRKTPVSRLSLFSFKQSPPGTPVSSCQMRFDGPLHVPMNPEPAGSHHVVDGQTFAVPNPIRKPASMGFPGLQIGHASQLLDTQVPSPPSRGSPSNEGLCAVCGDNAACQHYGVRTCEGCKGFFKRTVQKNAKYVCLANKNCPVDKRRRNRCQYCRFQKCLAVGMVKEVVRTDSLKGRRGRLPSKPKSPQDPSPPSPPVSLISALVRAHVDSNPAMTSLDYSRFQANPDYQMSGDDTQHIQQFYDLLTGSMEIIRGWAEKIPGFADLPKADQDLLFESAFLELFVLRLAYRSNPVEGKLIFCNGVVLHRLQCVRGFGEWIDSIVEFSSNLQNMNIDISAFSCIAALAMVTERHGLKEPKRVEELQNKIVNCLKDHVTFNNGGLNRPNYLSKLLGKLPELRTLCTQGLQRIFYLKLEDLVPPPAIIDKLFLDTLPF

For the compound `CS(=O)(=O)c1ccc2nc(C(=O)Nc3ccccc3)cn2c1` [Example 16, 6-(Methylsulfonyl)-N-phenylimidazo[1,2-a]pyridine-2-carboxamide and its hydrobromide (1:1)], the pEC50 was 7.80. For `CSc1ccc2nc(C(=O)Nc3ccccc3)cn2c1` [Example 14, 6-(Methylthio)-N-phenylimidazo[1,2-a]pyridine-2-carboxamide and its hydrobromide (1:1)] the value was 8.70. The value for “6-(Isopropylamino)-N-phenylimidazo[1,2-a]pyridine-2-carboxamide and its hydrochloride (1:1) [Example 2]” was 8.80.
